Measured values taken from publication PMC2948022 (Talanta, 2010).

Key:
Urine concentrations of = type: in vivo, human; details: CRPS patient, (R,S)-Ket 40 mg/h continuous infusion, morning of Day 3
Plasma concentrations of = details: CRPS patient, (R,S)-Ket 40 mg/h continuous infusion, morning of Day 3; estimated using the standard curve for (2S,6S); (2R,6R)-hydroxynorketamine
Relative = type: in vivo, human; details: CRPS patient urine, Day 3, AGP-CSP
[1] = cited from earlier work
[2] = cited from earlier work; remark: listed apart in the source
[3] = estimated using the standard curve for (2S,6S), (2R,6R)-hydroxynorketamine
[4] = estimated using the standard curve for (2S,6S)-hydroxyketamine

Row | Compound | Urine (Urine concentrations of; [3]) [ng/mL] | Plasma (Plasma concentrations of) [ng/mL] | also measured
1 | NC1(c2ccccc2Cl)CC(O)CCC1=O (single isomer, unassigned) [Peak 4e] | 515 | 160 | –
2 | N[C@]1(c2ccccc2Cl)CC[C@@H](O)CC1=O (single isomer, unassigned) [Peak 4f] | – | 141 | Urine (ng/ml) (Urine concentrations of; [3]): 4,099 ng/ml
3 | CNC1(c2ccccc2Cl)CCCCC1=O (single isomer, unassigned; peak 1) [Peak 1, (R.S)-Ketamine] | – | – | relative enantiomeric urine concentration (R)-/(S)- (Relative): 1.0
4 | N[C@@]1(c2ccccc2Cl)CCC[C@@H](O)C1=O (single isomer, unassigned; peak 4a) [Peak 4a] | – | – | concentration in the CNS [1]: reaches significant concentration in the CNS; anesthetic activity [2]: no anesthetic activity
5 | NC1(c2ccccc2Cl)CCCC(O)C1=O (single isomer, unassigned; peak 4b) [Peak 4b] | 572 | 881 | –
6 | N[C@]1(c2ccccc2Cl)CC[C@H](O)CC1=O (single isomer, unassigned; peak 4c) [Peak 4c] | 940 | 245 | –
7 | N[C@]1(c2ccccc2Cl)C[C@@H](O)CCC1=O (single isomer, unassigned; peak 4d) [Peak 4d] | 475 | 145 | –
8 | CN[C@]1(c2ccccc2Cl)CC[C@H](O)CC1=O (single isomer, unassigned; peak 5c) [Peak 5c] | – | – | Urine (Urine concentrations of; [4]): 4 ng/mL
9 | CN[C@@]1(c2ccccc2Cl)CC[C@H](O)CC1=O (single isomer, unassigned; peak 5d) [Peak 5d] | – | – | Urine (Urine concentrations of; [4]): 5 ng/mL
